Legend:
Coxsackievirus B4 = test: Histologically confirmed pancreatitis after Coxsackievirus infection; type: in vivo, Balb/c-Mäuse
[1] = Histopathological lung changes after infection, hamster; type: in vivo, syrischen Hamster; settings: Hamster (TCID₅₀ = 2 x 10^3,5)
[2] = Histopathological lung changes after infection, mouse; type: in vivo, Maus (Balb/c); settings: Maus (TCID = 10^3,5)
NMRI-Mäuse [3] = test: Antigen-specific IgM response against sheep erythrocytes in normal mice (Jerne plaque test, Fig. 1); type: in vivo; settings: 3x at 24 h intervals, 0,5 mg/kg, independent of route of application
From the text: (§1) Der Einfluß von DAc-SP5 und immunsuppressiv wirkenden Verbindungen auf die Antigen-spezifische IgM-Antwort bei Mäusen wurde untersucht. Die erhaltenen Ergebnisse sind in den Fig.1 und 2 dargestellt.
Tiere: männliche NMRI-Mäuse (Koloniezucht) im Alter von 2-2,5 Monaten. Methodik des Jerne-Plaquetests entsprechend R. Eckert und G. Pasternak, Acta biol. med. germ. 31: 127-137 (1973), n= 16 (NaCl-Kontrolle), n= 8 (DAc-SP5-Versuche).

NMRI-Mäuse [4] = test: Chemically induced suppression of the humoral immune response (cyclophosphamide, dexamethasone; Fig. 2); type: in vivo
From the text: as §1
DAc-SP5 rekonstituiert bereits durch wenige aufeinanderfolgende Applikationen die chemisch induzierts Suppression der humoralen Immunantwort.

[5] = system: Monocyten bzw. Lymphocytensubpopulationen; test: Cytofluorimetric quantification of monocytes and lymphocyte subpopulations in a patient with secondary immunodeficiency; type: in vivo, Patientin; settings: for DR^+-Monocyten (Gpt/l): before treatment 0,02, normal 0 -0,6; for CD 4 (Gpt/l): before treatment 0,03, normal 0,6 - 1,3; for CD 3 (Gpt/l): before treatment 0,04, normal 1,0 - 2,0; for Lymphocyten (Gpt/l): before treatment 0,28, normal 1,5 - 3,5; for CD 4/ CD 8: before treatment 0,58, normal 1,5 - 3,0; for DR^+-Monocyten (%): before treatment 16, normal 65 - 90
[6] = system: Knochenmark-stammzellen von C57 Bl-Mäusen; test: Colony formation test: mouse bone marrow stem cells co-cultured with human leukocytes in agar; type: cell-based; settings: without DAc-SP5 = 100 %
männlichen Balb/c-Mäusen = test: Chronic alcohol intoxication: parameters of the immune system; type: in vivo, Mäuse; settings: 5x daily before test, n=40
[7] = system: HIV-infizierten Patienten; test: Therapy of HIV-infected patients
Milzzellen/Ratte = test: Radioligand binding study, rat spleen cells
[8] = therapy before infection: 0,5 mg/kg s.c. 3 x per week during 2 weeks before infection
[9] = therapy during infection: 0,5 mg/kg s.c. daily over 5 days from day of infection
[10] = 15 % Ethanol over 1,5 months + 0,1 mg DAc-SP5 i.p.
[11] = no Ethanol, 0,1 mg DAc-SP5 i.p.
[12] = HIV-infected patients (Tab. 6.1.)

(N^α-Acetyl-arginyl)(N^ε-acetyl-lysyl)glutamylvalyltyrosin [DAc-SP5]
Tiere mit Pankreatitis (in %, n = 10-15) (Coxsackievirus B4; Infektionsdosis (TCID₅₀) 10³, therapy during infection: 0,5 mg/kg s.c. daily over 5 days from day of infection): 0% | Tiere mit Pankreatitis (in %, n = 10-15) (Coxsackievirus B4; Infektionsdosis (TCID₅₀) 10⁴, therapy before infection: 0,5 mg/kg s.c. 3 x per week during 2 weeks before infection): 80% | Tiere mit Pankreatitis (in %, n = 10-15) (Coxsackievirus B4; Infektionsdosis (TCID₅₀) 10⁴, therapy during infection: 0,5 mg/kg s.c. daily over 5 days from day of infection): 0% | Tiere mit Pankreatitis (in %, n = 10-15) (Coxsackievirus B4; Infektionsdosis (TCID₅₀) 10⁵, therapy before infection: 0,5 mg/kg s.c. 3 x per week during 2 weeks before infection): 100% | Tiere mit Pankreatitis (in %, n = 10-15) (Coxsackievirus B4; Infektionsdosis (TCID₅₀) 10⁵, therapy during infection: 0,5 mg/kg s.c. daily over 5 days from day of infection): 60% | Tiere mit Pankreatitis (in %, n = 10-15) (Coxsackievirus B4; Infektionsdosis (TCID₅₀) 10⁶, therapy before infection: 0,5 mg/kg s.c. 3 x per week during 2 weeks before infection): 100% | Tiere mit Pankreatitis (in %, n = 10-15) (Coxsackievirus B4; Infektionsdosis (TCID₅₀) 10⁶, therapy during infection: 0,5 mg/kg s.c. daily over 5 days from day of infection): 100% | Anzahl der Tiere mit histopathologischem Lungenbefund (%) [1, 8]: 100% | Anzahl der Tiere mit histopathologischem Lungenbefund (%) [1, 9]: 10% | Anzahl der Tiere mit histopathologischem Lungenbefund (%) [2, 8]: 100% | Anzahl der Tiere mit histopathologischem Lungenbefund (%) [2, 9]: 0% | Stärke und Kinetik der IgM-Antwort von Mäusen gegen Schafserythrocyten (NMRI-Mäuse [3]): keinen siknifikanten Einfluß | Suppression der Antigen-spezifischen IgM-Antwort nach Cyclophosphamid (NMRI-Mäuse [4]; Cyclophosphamid 7,2 mg/Tier i. p. once, DAc-SP5 0,5 mg/kg s. c. on the 4 following days): teilweise rekonstituiert | Reduktion der Antigen-spezifischen IgM-Antwort durch Dexamethason (NMRI-Mäuse [4]; Dexamethason 0,2 or 0,08 mg/Tier i. p., DAc-SP5 0,5 mg/kg s. c. on the two following days): vollständig rekonstituiert | DR^+-Monocyten (Gpt/l) ([5]; 2 weeks of therapy): 0,08 Gpt/l | CD 4 (Gpt/l) ([5]; 2 weeks of therapy): 0,29 Gpt/l | CD 3 (Gpt/l) ([5]; 2 weeks of therapy): 0,39 Gpt/l | Lymphocyten (Gpt/l) ([5]; 2 weeks of therapy): 0,84 Gpt/l | CD 4/ CD 8 ([5]; 2 weeks of therapy): 2,3 | DR^+-Monocyten (%) ([5]; 2 weeks of therapy): 22% | DR^+-Monocyten (Gpt/l) ([5]; 3 weeks of therapy): 0,26 Gpt/l | CD 4 (Gpt/l) ([5]; 3 weeks of therapy): 0,34 Gpt/l | CD 3 (Gpt/l) ([5]; 3 weeks of therapy): 0,55 Gpt/l | Lymphocyten (Gpt/l) ([5]; 3 weeks of therapy): 0,74 Gpt/l | CD 4/ CD 8 ([5]; 3 weeks of therapy): 2,2 | DR^+-Monocyten (%) ([5]; 3 weeks of therapy): 62% | DR^+-Monocyten (Gpt/l) ([5]; 4 weeks of therapy): 0,60 Gpt/l | CD 4 (Gpt/l) ([5]; 4 weeks of therapy): 0,38 Gpt/l | CD 3 (Gpt/l) ([5]; 4 weeks of therapy): 0,67 Gpt/l | Lymphocyten (Gpt/l) ([5]; 4 weeks of therapy): 0,83 Gpt/l | CD 4/ CD 8 ([5]; 4 weeks of therapy): 2,4 | DR^+-Monocyten (%) ([5]; 4 weeks of therapy): 72% | Zell-"Kolonien" pro 10^5 Knochenmarkzellen, Prozentuale Angabe ([6]; leukocytes of Kontroll-personen, Exp. A, 1 µg DAc-SP5 per 1 ml agar): 99% | Zell-"Kolonien" pro 10^5 Knochenmarkzellen, Prozentuale Angabe ([6]; leukocytes of Kontroll-personen, Exp. A, 2 µg DAc-SP5 per 1 ml agar): 98% | Zell-"Kolonien" pro 10^5 Knochenmarkzellen, Prozentuale Angabe ([6]; leukocytes of Kontroll-personen, Exp. A, 10 µg DAc-SP5 per 1 ml agar): 114% | Zell-"Kolonien" pro 10^5 Knochenmarkzellen, Prozentuale Angabe ([6]; leukocytes of Kontroll-personen, Exp. A, 20 µg DAc-SP5 per 1 ml agar): 125% | Zell-"Kolonien" pro 10^5 Knochenmarkzellen, Prozentuale Angabe ([6]; leukocytes of Kontroll-personen, Exp. B, 1 µg DAc-SP5 per 1 ml agar): 135% | Zell-"Kolonien" pro 10^5 Knochenmarkzellen, Prozentuale Angabe ([6]; leukocytes of Kontroll-personen, Exp. B, 2 µg DAc-SP5 per 1 ml agar): 136% | Zell-"Kolonien" pro 10^5 Knochenmarkzellen, Prozentuale Angabe ([6]; leukocytes of Kontroll-personen, Exp. B, 10 µg DAc-SP5 per 1 ml agar): 147% | Zell-"Kolonien" pro 10^5 Knochenmarkzellen, Prozentuale Angabe ([6]; leukocytes of Kontroll-personen, Exp. B, 20 µg DAc-SP5 per 1 ml agar): 137% | Zell-"Kolonien" pro 10^5 Knochenmarkzellen, Prozentuale Angabe ([6]; leukocytes of Patienten (Systemischer Lupus Erythe-matodes), Exp. A, 1 µg DAc-SP5 per 1 ml agar): 180% | Zell-"Kolonien" pro 10^5 Knochenmarkzellen, Prozentuale Angabe ([6]; leukocytes of Patienten (Systemischer Lupus Erythe-matodes), Exp. A, 2 µg DAc-SP5 per 1 ml agar): 316% | Zell-"Kolonien" pro 10^5 Knochenmarkzellen, Prozentuale Angabe ([6]; leukocytes of Patienten (Systemischer Lupus Erythe-matodes), Exp. A, 10 µg DAc-SP5 per 1 ml agar): 270% | Zell-"Kolonien" pro 10^5 Knochenmarkzellen, Prozentuale Angabe ([6]; leukocytes of Patienten (Systemischer Lupus Erythe-matodes), Exp. A, 20 µg DAc-SP5 per 1 ml agar): 256% | Zell-"Kolonien" pro 10^5 Knochenmarkzellen, Prozentuale Angabe ([6]; leukocytes of Patienten (Systemischer Lupus Erythe-matodes), Exp. B, 2 µg DAc-SP5 per 1 ml agar): 873% | Zell-"Kolonien" pro 10^5 Knochenmarkzellen, Prozentuale Angabe ([6]; leukocytes of Patienten (Systemischer Lupus Erythe-matodes), Exp. B, 10 µg DAc-SP5 per 1 ml agar): 642% | Zell-"Kolonien" pro 10^5 Knochenmarkzellen, Prozentuale Angabe ([6]; leukocytes of Patienten (Systemischer Lupus Erythe-matodes), Exp. B, 20 µg DAc-SP5 per 1 ml agar): 438% | % phagocytierende Peritonealzellen (männlichen Balb/c-Mäusen; [10]): 47,5±1,7% | Milzmasse (mg) (männlichen Balb/c-Mäusen; [10]): 82,0±5,6 mg | Phagocytoseindex (männlichen Balb/c-Mäusen; [10]): 4,5±0,1 | Plaque-bildende Zellen der Milz pro 10⁶ Zellen (Jerne-Plaquetest) (männlichen Balb/c-Mäusen; [10]): 214,3±5,9 pro 10⁶ Zellen | Thymusmasse (mg) (männlichen Balb/c-Mäusen; [10]): 29,0±2,2 mg | % phagocytierende Peritonealzellen (männlichen Balb/c-Mäusen; [11]): 75,0±2,6% | Milzmasse (mg) (männlichen Balb/c-Mäusen; [11]): 95,0±7,1 mg | Phagocytoseindex (männlichen Balb/c-Mäusen; [11]): 4,9±0,15 | Plaque-bildende Zellen der Milz pro 10⁶ Zellen (Jerne-Plaquetest) (männlichen Balb/c-Mäusen; [11]): 285,0±11,3 pro 10⁶ Zellen | Thymusmasse (mg) (männlichen Balb/c-Mäusen; [11]): 40,0±3,0 mg | CD4⁺/CD8⁺-Verhältnisses [7, 12]: Verbesserung | Gesamtlymphocytenzahl [7, 12]: Anhebung der Gesamtlymphocytenzahl in den Kontrollbereich | Nebenwirkungen ([7]; HIV-infected patients, after 16 weeks of therapy): keine Nebenwirkungen

³H-Splenopentin [³H-SP5]
Radioligand-Dissoziationskonstante (KD, M) (Milzzellen/Ratte): keine verdrängbare Bindung

From patent EP0307553B1, “Modified splenopentines, their process of preparation and their use” (priority 1987, dated 1989)
